What was measured:
[1] = test system: CHO/αIIbβ3 cell line; assay: Screening of talin antagonist candidates: binding of CHO/αIIbβ3 cells to fibrinogen-coated plate (CCK-8 readout); type: cell-based; details: 0.2 mM of candidate; compared to a negative control; FIG. 2; read-out: inhibition of the binding between the CHO/αIIbβ3 cell line and fibrinogen
Method: Cells expressing platelet integrin αIIbβ3 were incubated with 0.2 mM of candidates, and the binding between the cells and fibrinogen was verified according to the experimental method shown in FIG. 1. In FIG. 2, 0% is a negative control and represents the degree to which cells adhere to a surface coated with bovine serum albumin (BSA) instead of fibrinogen, and 100% is a positive control and represents the degree to which cells adhere to fibrinogen in the absence of any candidate. The ability of candidates to inhibit fibrinogen binding was normalized to 100%, and the mean and standard error of three experiments are graphically shown.
Platelets bind to fibrinogen present in blood and produce thrombi. This binding is mediated by integrin αIIbβ3 present in the platelet cell membrane, and this integrin binds to fibrinogen after being activated by talin. In order to enable high-throughput efficacy testing by simplifying this procedure into a cell line-based experiment, integrin αIIbβ3 was first stably expressed in the CHO cell line using lentivirus, thereby constructing a CHO/αIIbβ3 cell line. The constructed cell line was cultured in a fibrinogen-coated 96-well plate for 1 hour and washed, after which the amount of remaining cells was measured to evaluate the efficacy of a talin antagonist candidate. In this procedure, in order to measure the relative amount of the CHO/αIIbβ3 cell line remaining in the well due to binding to fibrinogen, a cell counting kit-8 (CCK-8) was used to measure the activity of dehydrogenase present in the remaining cells. When the activity of dehydrogenase appeared due to the presence of the cells, the color of CCK-8 changed from yellow to orange (FIG. 1). To measure the degree to which the color changed to orange, the absorbance at a wavelength of 450 nm was measured with a plate reader. This enabled easy, fast and reliable high-throughput screening.
To screen talin antagonist candidates, inhibition of the binding affinity between the CHO/αIIbβ3 cell line and fibrinogen was examined by the above-described efficacy testing method.
As a result, it was shown that compounds, including KCH-1420, KCH-1424, KCH-1510, KCH-1511, KCH-1512, KCH-1513, KCH-1516, KCH-1518, KCH-1521, KCH-1523, KCH-1526, KCH-1529, KCH-1530, and KCH-1542 inhibited the binding between the CHO/αIIbβ3 cell line and fibrinogen by at least 80% compared to a negative control (FIG. 2). […] In FIG. 3, like FIG. 2, cells expressing platelet integrin αIIbβ3 were incubated with varying concentrations of a candidate, and the binding between the cells and fibrinogen was examined. Cell adhesion on the Y-axis is the relative degree of cell-fibrinogen binding.

[2] = biological target: T1, talin protein (6×His-tagged F2F3 protein) (Homo sapiens, UniProt Q9Y490); assay: Binding affinity between talin protein and candidate by surface plasmon resonance; details: SPR, talin F2F3 immobilized on sensor chip; FIG. 4; read-out: affinity constant
T1 construct: 6×His-tagged F2F3 protein containing F3 was isolated and purified; 6×His; made in house
Method: To measure the binding affinity between the talin protein and a talin antagonist candidate, surface plasmon resonance spectroscopy was used. Specifically, a talin antagonist candidate was added to the talin protein immobilized on a sensor chip, and the affinity constant between the two substances was measured by surface plasmon resonance (hereinafter referred to as ‘SPR’) spectrometry.
Talin is divided into an N-terminal head domain and a C-terminal rod domain, and the head domain is further divided into four subdomains, F0, F1, F2 and F3. Among them, F3 is known as an integrin binding site. Thus, 6×His-tagged F2F3 protein containing F3 was isolated and purified. As a sensor chip for immobilizing the talin protein, HTEPBE10PO1 (Biorad) was used. SPR was measured using ProteON™ XPR36 (Biorad).

[3] = test system: mouse blood platelets; assay: Platelet aggregation inhibitory effect using mouse platelets activated by thrombin; type: cell-based; details: 0.2 mM compound, FIG. 5
Method: It is well known that platelets bind to fibrinogen in blood and form thrombi, which leads to the contraction of intracellular skeletal muscle due to signaling after the binding between activated integrin a αIIbβ3 and fibrinogen. To achieve this thrombus formation in vitro, mouse blood platelets were isolated and thrombin known as a platelet activator was added thereto. As a result, as shown in the left photograph of FIG. 5, the platelets were aggregated. However, when platelets were treated with thrombin in combination with KCH-1513 or KCH-1521, it was observed that platelet aggregation that was increased by thrombin decreased when 0.2 mM of KCH-1513 (middle photograph) or the same concentration of KCH-1521 (right photograph) was added.

T1 sequence (Q9Y490 196-405 limits assumed): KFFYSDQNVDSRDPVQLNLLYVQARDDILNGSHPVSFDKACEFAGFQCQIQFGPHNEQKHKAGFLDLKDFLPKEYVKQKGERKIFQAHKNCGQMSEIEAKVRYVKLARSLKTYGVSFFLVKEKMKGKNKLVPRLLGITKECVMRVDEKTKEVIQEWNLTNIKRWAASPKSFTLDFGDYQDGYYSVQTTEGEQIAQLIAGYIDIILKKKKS

**Q.** `Cc1cccc(OCC(=O)NC(=O)Nc2ccccc2F)c1C` [KCH-1420, 2-(2,3-dimethylphenoxy)-N-((2-fluorophenyl)carbamoyl)acetamide] was tested. Which inhibition at 200 µM [1] did it give?
**A.** ≥ 80%

**Q.** Which inhibition at 200 µM [1] does the source give for `CC(C)(C)OC(=O)N1CCN(CC(=O)NC(=O)Nc2ccccc2F)CC1` [KCH-1424, tert-butyl 4-(2-(3-(2-fluorophenyl)ureido)-2-oxoethyl)piperazine-1-carboxylate] here?
**A.** ≥ 80%

**Q.** With `COc1cc(NC(=O)NC(=O)Cn2nnc(-c3ccccc3)n2)ccc1Br` [KCH-1510, N-((4-bromo-3-methoxyphenyl)carbamoyl)-2-(5-phenyl-2H-tetrazol-2-yl)acetamide] as the molecule, how does the inhibition at 200 µM [1] read?
**A.** ≥ 80%

**Q.** With `O=C(Cn1nnc(-c2ccccc2)n1)NC(=O)Nc1ccc(Oc2ccccc2)cc1` [KCH-1511, N-((4-phenoxyphenyl)carbamoyl)-2-(5-phenyl-2H-tetrazol-2-yl)acetamide] as the molecule, how does the inhibition at 200 µM [1] read?
**A.** ≥ 80%

**Q.** `COc1ccc(CNC(=O)NC(=O)Cn2nnc(-c3ccccc3)n2)cc1` [KCH-1512, N-((4-methoxybenzyl)carbamoyl)-2-(5-phenyl-2H-tetrazol-2-yl)acetamide] was tested. Which inhibition at 200 µM [1] did it give?
**A.** ≥ 80%

**Q.** Which results are given for `O=C(Cn1nnc(-c2ccccc2)n1)NC(=O)NCCC1=CNC2C=CC=CC12` (stereo not drawn) [KCH-1513, N-((2-(3a,7a-dihydro-1H-indol-3-yl)ethyl)carbamoyl)-2-(5-phenyl-2H-tetrazol-2-yl)acetamide]?
**A.** inhibition at 200 µM [1]: ≥ 80%; Kd [2]: 9.33 mM; inhibition of thrombin-induced platelet aggregation [3]: significantly inhibit platelet aggregation

**Q.** Which inhibition at 200 µM [1] does the source give for `O=C(Cn1nnc(-c2ccccc2)n1)NC(=O)Nc1ccccc1F` [KCH-1516, N-((2-fluorophenyl)carbamoyl)-2-(5-phenyl-2H-tetrazol-2-yl)acetamide] here?
**A.** ≥ 80%

**Q.** For `COc1cc(NC(=O)NC(=O)COc2ccc3c(c2)OCO3)ccc1Br` [KCH-1518, 2-(benzo[d][1,3]dioxo1-5-yloxy)-N-((4-bromo-3-methoxyphenyl)carbamoyl) acetamide], which inhibition at 200 µM [1] is on record?
**A.** ≥ 80%

**Q.** `O=C(COc1ccc2c(c1)OCO2)NC(=O)NCCc1c[nH]c2ccccc12` [KCH-1521] was tested. Which inhibition at 200 µM [1] did it give?
**A.** ≥ 80%

**Q.** What about the Kd [2] of the same molecule?
**A.** 0.271 mM

**Q.** What about the “inhibition of thrombin-induced platelet aggregation” value [3] of the same molecule?
**A.** significantly inhibit platelet aggregation

**Q.** `O=C(COc1ccc2c(c1)OCO2)NC(=O)Nc1ccc(OCc2ccccc2)cc1` [KCH-1523, 2-(benzo[d][1,3]dioxol-5-yloxy)-N-((4-(benzyloxy)phenyl)carbamoyl) acetamide] was tested. Which inhibition at 200 µM [1] did it give?
**A.** ≥ 80%

**Q.** Which inhibition at 200 µM [1] does the source give for `COc1cc(NC(=O)NC(=O)COc2ccccc2OC)ccc1Br` [KCH-1526, N-((4-bromo-3-methoxyphenyl)carbamoyl)-2-(2-methoxyphenoxy)acetamide] here?
**A.** ≥ 80%

**Q.** `COc1ccccc1OCC(=O)NC(=O)NCCc1c[nH]c2ccccc12` [KCH-1529, N-((2-(1H-indol-3-yl)ethyl)carbamoyl)-2-(2-methoxyphenoxy)acetamide] was tested. Which inhibition at 200 µM [1] did it give?
**A.** ≥ 80%

**Q.** `COc1ccc(NC(=O)NC(=O)COc2ccccc2OC)c(OC)c1` [KCH-1530, N-((2,4-dimethoxyphenyl)carbamoyl)-2-(2-methoxyphenoxy)acetamide] was tested. Which inhibition at 200 µM [1] did it give?
**A.** ≥ 80%

**Q.** With `COc1ccc(NC(=O)NC(=O)COc2cccc(Br)c2)c(OC)c1` [KCH-1542, 2-(3-bromophenoxy)-N-((2,4-dimethoxyphenyl)carbamoyl)acetamide] as the molecule, how does the inhibition at 200 µM [1] read?
**A.** ≥ 80%

Source: patent US11306073B2, “N-acylurea derivative and composition comprising same for prevention or treatment of cardiovascular disease” (KOREA UNIVERSITY RESEARCH AND BUSINESS FOUNDATION, priority 2016, dated 2022)
